Read-outs that look alike come from different tables or passages of the source. Blank lines part the entries; values can stand above or below the compound they belong to.
Assays:
rHuTS [1] = target: T1, rHuTS (Homo sapiens, UniProt P04818); assay: Impact of folate inhibitors, cell-free rHuTS substrate utilization; type: biochemical; details: for remaining activity: MTX 140 μM, LV 140 μM or TDX 5 μM
T1 construct: His tag (N); made in house; host or cells: E. coli BL21 (DE3), pET-28a(+)
Procedure: M. Enzyme Assays and Kinetic Measurements. […] Tetrahydrofolate stock solutions were prepared by dissolving tetrahydrofolic acid (Sigma) directly into 0.2 M Tris pH 7.5, 0.5 M-mercaptoethanol; stock solutions were stored at −80° C. […] N5, N10-methylene tetrahydrofolate was kept on ice and used within 2 hours of preparation.
Cell-free assays using rHuTS, the appropriate substrate and other components were combined as described in Methods. […] Utilization of substrate (either BVdUMP or THF) was employed as a measure of reaction rate. The numbers indicate remaining activity.

rHuTS [2] = target: T1, rHuTS; assay: Inhibition of rHuTS reactions by Tomudex and 5-FdUMP; type: biochemical; details: for activity at 0.5 µM: read-out: rate as % of No Inhibitor
Procedure: M. Enzyme Assays and Kinetic Measurements. Thymidylate synthase assays were done in 96 well Costar UV transparent plates in a reaction volume of 200 μl, consisting of 40 mM Tris pH 7.5, 25 mM MgCl2, 1 mM EDTA, 25 mM-mercaptoethanol, 125 µM dUMP, and 65 μM N5, N1O-methylene tetrahydrofolate indicated. Tetrahydrofolate stock solutions were prepared by dissolving tetrahydrofolic acid (Sigma) directly into 0.2 M Tris pH 7.5, 0.5 M-mercaptoethanol; stock solutions were stored at −80° C. N5, N10-methylene tetrahydrofolate was prepared by adding 12 μl of 3.8% formaldehyde to 1 ml of a 0.65 mM solution of tetrahydrofolate and incubating for 5 minutes at 37° C. N5, N10-methylene tetrahydrofolate was kept on ice and used within 2 hours of preparation.
Conversion of BVdUMP to fluorescent product(s) by thymidylate synthase was measured in 200 µl thymidylate synthase reactions containing 125 µM BVdUMP in 96 well Dynex Microfluor Black “U” bottom microtiter plates using an excitation wavelength of 340 nm and emission wavelength of 595 nm. Fluorescence was measured with a Tecan Spectrafluor Plus fluorimeter.
Inhibition of rHuTS reactions by Tomudex and 5-FdUMP. Thymidylate synthase reactions containing enzyme inhibitors or cofactor were incubated at 30° C. as described in Materials and Methods, and the initial rates of the enzyme reaction were determined by measuring the increase in relative fluorescence units at 340 nm excitation, 595 nm emission for the BVdUMP reactions, or increase in A340 for the dUMP reaction.

[3] = target: T2, recombinant human thymidylate synthase (rHuTS) (Homo sapiens, UniProt P04818); assay: Enzyme kinetics of rHuTS with dUMP and BVdUMP; type: biochemical
T2 construct: His tag (N); made in house; host or cells: E. coli BL21 (DE3), pET-28a(+)
Procedure: L. Enzyme Preparation. Cloned human thymidylate synthase plasmid pBCHTS was subcloned into E. coli. BL21 (DE3)/pET-28a(+) (Novagen) using the NdeI ñSacI insertion site, in order to add an amino terminal His tag. […] M. Enzyme Assays and Kinetic Measurements. […] Tetrahydrofolate stock solutions were prepared by dissolving tetrahydrofolic acid (Sigma) directly into 0.2 M Tris pH 7.5, 0.5 M-mercaptoethanol; stock solutions were stored at -80° C. […] N5, N10-methylene tetrahydrofolate was kept on ice and used within 2 hours of preparation. […] The catalytic efficiency of the enzyme (Kcat/Km) was calculated from the kinetic constants Km and Vmax.

[4] = system: H630R10 5FU-resistant colon tumor cells; assay: alamarBlue growth inhibition, H630R10; type: cell-based, human
Procedure: (§1) J. Growth Inhibition Studies. Cells growing exponentially were transferred to 384-well flat bottom tissue culture plates. All cell types were plated at a density of 500 cells per well in 25 μL of complete medium (RPMI 1640+10% fetal bovine serum+antibiotics/antimycotics). After 24 hours (day 0), 25 μL of complete medium containing the experimental compounds over the dose range of 10^ñ3 to 10^ñ10 M were added in triplicate. […] 5 μL of the redox indicator, alamarBlue, was added to each well (10% v/v). After 4 hours incubation at 37° C., fluorescence was monitored at 535 nm excitation and 595 nm emission.
(§2) Concentration vs. relative fluorescence units (RFU) were plotted, and sigmoid curves were fit using the Hill equation.

[5] = system: CCD18co normal colon epthelial cell; assay: Thymidine rescue, alamar blue; type: cell-based, human; details: for rescue by thymidine: 10 uM thymidine; for IC50: Homo sapiens, CCD-18Co
Source text: An additional approach was taken to understanding whether NB1011 might interfere with cell growth primarily by inactivating TS. This approach is based upon thymidine rescue of TS-blocked cells. […] For this reason, they survive only by scavenger mechanisms. One of the important scavenger mechanisms is utilization of extracellular thymidine. Thymidine incorporated by target cells can be converted to dTMP, usually by thymidine kinase, and thus continue DNA synthesis. Other pathways for use of exogenous thymidine have also been described If an important mechanism for NB1011 activity is via inhibition of endogenous TS, then the cytotoxicity should be relieved when thymidine is added to the cell culture media. For this experiment, a number of tumor cell lines were screened for their sensitivity to Tomudex and 5FdUrd, and ability to be rescued from these agents via thymidine supplementation. […] Experiments were carried out as described by (Patterson, et al. (1998) Cancer Res. 58: 2737-2740) with or without 10 uM thymidine, except that the alamar blue assay (see Materials and Methods) was employed to determine cytotoxicity.

[6] = system: normal and tumor cell types; assay: Tumor/normal cell screen, panel averages and therapeutic index; type: cell-based, human
Procedure: (§3) J. Growth Inhibition Studies. Cells growing exponentially were transferred to 384-well flat bottom tissue culture plates. All cell types were plated at a density of 500 cells per well in 25 μL of complete medium (RPMI 1640+10% fetal bovine serum+antibiotics/antimycotics). After 24 hours (day 0), 25 μL of complete medium containing the experimental compounds over the dose range of 10^ñ3 to 10^ñ10 M were added in triplicate. Drug exposure time was 120 hours (day 5), after which growth inhibition was assayed. 5 μL of the redox indicator, alamarBlue, was added to each well (10% v/v). After 4 hours incubation at 37° C., fluorescence was monitored at 535 nm excitation and 595 nm emission.
as §2
Assays were carried out as described in Methods, above. Therapeutic index is calculated as the ratio of the average IC50 for normal cells to the average IC50 for tumor cells. All assays were done at least three times.

[7] = system: TSL/HT1080 cells (TS Level 702%); assay: alamarBlue growth inhibition, HT1080 clone with TS level 702%; type: cell-based; details: Homo sapiens, HT-1080, TSL/HT1080 (second line)
Procedure: (§4) F. Cell lines and transfection. HT1080 cells were grown in PRMI1640 medium supplemented with 10% fetal calf serum, and transfected with GFP-TS expression vector. 48 hours after, transfection cells were tripsinized and replated in culture medium containing 750 μg/ml G418. After selection with G418 for two weeks, surviving cells were sorted based upon fluorescence expression. One clone with higher fluorescence expression (named as TSH/HT1080) and one clone with lower fluorescence expression (named as TSL/HT1080) were selected and expanded into cells lines. The stable HT1080 cells transfected with pEGFP-C3 were used as control.
(§5) G. Construction of GFP-TS expression vector. […]
(§6) J. Growth Inhibition Studies. […] After 4 hours incubation at 37° C., fluorescence was monitored at 535 nm excitation and 595 nm emission.
as §2
(§7) A cDNA encoding rHuTS was subcloned into ventor pEGFP-C3, in-frame with GFP. […] Individual cells were cloned based upon high or low fluorescence expression as described in Methods. *TS levels were determined by using Western blot analysis, the quantified expression levels were expressed as values relative to that of cell strain CCD18co.

[8] = system: MCF7 TDX Tomudex-resistant breast cancer cells; assay: alamarBlue growth inhibition, MCF7 TDX; type: cell-based; details: Homo sapiens
Procedure: as §3, §2
(§8) O. Reversal of Resistance. The origin and characteristics of the human breast cancer MCF7 TDX cell line have been previously described (Drake, et al. (1996) Biochem. Pharmcol. 51(10): 1349-1355). Briefly, MCF-7 breast cancer cells were selected in vitro for resistance to Tomudex by continuous exposure to stepwise increases in TDX concentrations up to 2.0 μM.

[9] = system: MCF7 (Breast) tumor cells; assay: alamarBlue growth inhibition, MCF7; type: cell-based; details: Homo sapiens
Procedure: as §1, §2

MCF7 TDX/1011 cells = assay: alamarBlue growth inhibition, MCF7 TDX/1011; type: cell-based; details: Homo sapiens
Procedure: as §3, §2, §8

C/HT1080 cells = assay: alamarBlue growth inhibition, C/HT1080 control; type: cell-based; details: Homo sapiens, HT-1080; C/HT1080, TS Level 100%
Procedure: as §4, §5, §6, §2, §7

[10] = system: TSL/HT1080 cells (GFP-TS, lower expression); assay: alamarBlue growth inhibition, TSL/HT1080; type: cell-based; details: Homo sapiens, HT-1080; TSL/HT1080, TS Level 409%
Procedure: as §4, §5, §6, §2, §7

[11] = BVdUMP − THF, inhibitor 500 nM, relative fluorescence units

T1 sequence (P04818 whole entry): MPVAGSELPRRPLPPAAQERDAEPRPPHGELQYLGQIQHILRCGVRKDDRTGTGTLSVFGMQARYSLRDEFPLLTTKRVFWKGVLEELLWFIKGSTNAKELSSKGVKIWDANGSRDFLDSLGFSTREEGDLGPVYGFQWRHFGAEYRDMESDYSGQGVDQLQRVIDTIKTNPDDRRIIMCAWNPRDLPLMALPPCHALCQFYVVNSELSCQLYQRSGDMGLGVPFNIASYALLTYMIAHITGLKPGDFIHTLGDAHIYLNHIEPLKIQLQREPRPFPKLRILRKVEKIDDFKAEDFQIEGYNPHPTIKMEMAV
T2 sequence (P04818 whole entry): as above

remaining activity (rHuTS [1]; BVdUMP, w/o THF): 97%
remaining activity (rHuTS [1]; BVdUMP, with THF): 17%
remaining activity (rHuTS [1]; dUMP, with THF): 77%
SMILES: Nc1nc2c(c(=O)[nH]1)N(C=O)C(CNc1ccc(C(=O)N[C@@H](CCC(=O)O)C(=O)O)cc1)CN2 (stereo partly shown) [LV, 5-formyltetrahydrofolate]

initial rate of rHuTS reaction (rHuTS [2]; dUMP + THF, No Inhibitor, A340): 1500 ± 20 nmol/min
SMILES: O=c1ccn([C@H]2C[C@H](O)[C@@H](COP(=O)(O)O)O2)c(=O)[nH]1 [dUMP, Deoxguridine Monophosphate]

initial rate of rHuTS reaction (rHuTS [2]; BVdUMP + THF, No Inhibitor, 30° C.): 109 ± 16 RFU/min
initial rate of rHuTS reaction (rHuTS [2]; BVdUMP − THF, No Inhibitor, relative fluorescence units): 75 ± 11
type of inhibition with dUMP in rHuTS ([3]; 20 μM BVdUMP, dUMP 10 to 100 μM): competitive
increase in catalytic efficiency of BVdUMP conversion, human enzyme vs L. casei enzyme ([3]; relative to endogenous substrate dUMP): > 6.4 fold
substrate utilization rate relative to reaction with THF (rHuTS [1]; BVdUMP, w/o THF, Inhibitor None): 138%
SMILES: O=c1[nH]c(=O)n([C@H]2C[C@H](O)[C@@H](COP(=O)(O)O)O2)cc1/C=C/Br [BVdUMP, (E)5-(2-Bromovinyl)-2′-deoxyuridine 5′-monophosphate]

initial rate of rHuTS reaction (rHuTS [2]; BVdUMP + THF, inhibitor 500 nM): 67 ± 3 RFU/min
activity at 0.5 µM (rHuTS [2]; BVdUMP + THF, inhibitor 500 nM): 61%
activity at 0.5 µM (rHuTS [2]; BVdUMP − THF, inhibitor 500 nM): 45%
initial rate of rHuTS reaction (rHuTS [2]; [11]): 34 ± 3
initial rate of rHuTS reaction (rHuTS [2]; dUMP + THF, inhibitor 500 nM): 690 ± 40 nmol/min
activity at 0.5 µM (rHuTS [2]; dUMP + THF, inhibitor 500 nM): 46%
IC50 (MCF7 TDX/1011 cells): 0.041 µM
IC50 (C/HT1080 cells): 3.6 µM
remaining activity (rHuTS [1]; BVdUMP, w/o THF): 25%
remaining activity (rHuTS [1]; BVdUMP, with THF): 0%
remaining activity (rHuTS [1]; dUMP, with THF): 18%
IC50 [10]: 24 µM
IC50 [7]: 153 µM
IC50 [8]: > 10 µM
IC50 [9]: 0.026 µM
SMILES: Cc1nc2ccc(CN(C)c3ccc(C(=O)N[C@@H](CCC(=O)O)C(=O)O)s3)cc2c(=O)[nH]1 [Tomudex]
rescue by thymidine [5]: 15 fold
IC50 ([5]; with 10 uM thymidine): 0.095 µM
IC50 ([5]; without thymidine): 0.0065 µM

The remaining lines, values behind:

SMILES: O=c1[nH]c(=O)n([C@H]2C[C@H](O)[C@@H](CO)O2)cc1F [5FUdR, 5-fluoro-2′-deoxyuridine]
more toxic to normal colon cells (CCD18co) than to 5FU-resistant H630R10 tumor cells [4]: about 18 fold
rescue by thymidine [5]: greater than 590 fold

SMILES: O=c1[nH]c(=O)n([C@H]2C[C@H](O)[C@@H](COP(=O)(O)O)O2)cc1F [5-FdUMP]
initial rate of rHuTS reaction (rHuTS [2]; BVdUMP + THF, inhibitor 500 nM): 44 ± 2 RFU/min
initial rate of rHuTS reaction (rHuTS [2]; [11]): 93 ± 13
initial rate of rHuTS reaction (rHuTS [2]; dUMP + THF, inhibitor 500 nM): 290 ± 70 nmol/min

SMILES: O=c1[nH]cc(F)c(=O)[nH]1 [5FU, 5-fluorouracil]
more toxic to normal cells than to tumor cells ([6]; overall): 3 fold
Therapeutic index (N/T) ([6]; ratio of average IC50 normal cells to average IC50 tumor cells): 0.30
IC50 [7]: 3.5 µM
IC50 [8]: 32 µM
IC50 [9]: 10 µM

From patent publication US7419968B1, “Methods for treating therapy-resistant tumors” (Celmed Oncology (USA), Inc., priority 1999, dated 2008)
